Results from patent US20050245540A1, “New methods” (FUJISAWA PHARMACEUTICAL CO., LTD., priority 2003, published 2005).
Where a name gives a salt, the structure may show the parent alone.

Test system: calvaria from 5-day-old ICR mice
Assay: Assay using mouse calvarial organ culture (calvaria bone formation assay)
Type: cell-based
Details: test compound 1.0 × 10^−5 M added in combination with TGF-beta1; new bone area by histomorphometry after 1 week culture
Experimental: Assay using Mouse Calvarial Organ Culture
Calvaria bone formation assay was essentially performed as described by Bonewald et al. (Endocrinology 139:3178, 1998). The calvaria from 5-day-old ICR mice were excised and cut in half along the sagittal suture. Each half of the calvaria was placed on a stainless steel grid in a 12-well tissue culture dish. Each well contained BGJ media (Sigma) supplemented with 0.1% bovine serum albumine, to which the test compound was added in combination with TGF-beta1. The media was changed 24 and 96 hrs. Calvaria were maintained in humidified air (5% CO2) at 37° C. for 1 week. The calvaria were then fixed overnight in formalin, decalcified in EDTA, and were then embedded in paraffin wax. Calvaria sections were stained with hematoxylin and eosin. Histomorphometric analysis was performed using the Image-pro Plus (Trade mark, Media Cybernetics). The sum of the new bone area was determined. Rate of increase was calculated in the following; [formula] • Calvaria area is calculated using Histomorphometric analysis. • Ats: Score of area in case of addition of test compound and TGF beta1 • Atg: Score of area in case of addition of TGF beta1 • Ac: Score of area in case of no addition (Control)

Point of comparison: `CS(=O)(=O)c1ccc(Cn2cc(C3CCNCC3)c3ccccc32)cc1` [Example 7, 1-[4-(methylsulfonyl)benzyl]-3-(4-piperidinyl)-1H-indole hydrochloride], Rate of increase 206%. Against it:
- CC(C)(C)OC(=O)NCCCCCCCN1CCC(c2c[nH]c3ccc(O)cc23)CC1 [40-(3), 3-[1-(7-tert-butoxycarbonylaminoheptyl)-4-piperidinyl]-5-hydroxy-1H-indole] — lower, 140%
- COc1ccc(Cn2cc(C3CCN(C(=O)OC(C)(C)C)CC3)c3ccc(C#N)cc32)cc1Cl [46-(4)] — lower, 203%
- COc1ccc(Cn2cc(C3CCNCC3)c3ccc(C#N)cc32)cc1Cl.Cl [49-(6), 1-(3-Chloro-4-methoxybenzyl)-6-cyano-3-(4-piperidinyl)-1H-indole hydrochloride] — lower, 112%
- COC(=O)c1cccc(Cn2cc(C3CCNCC3)c3ccccc32)c1 [9-(18)] — lower, 158%
- Cc1ccc(Cn2cc(C3CCNCC3)c3ccccc32)cc1C [9-(5)] — lower, 180%

Test system: not given
Assay: not given
Details: not given

First: CC(C)(C)OC(=O)N1CCC(c2cn(S(C)(=O)=O)c3ccccc23)CC1 [Example 4, tert-butyl 4-[1-(methylsulfonyl)-1H-indol-3-yl]-1-piperidinecarboxylate]
Second: CC(C)(C)OC(=O)N1CCC(c2c[nH]c3ccccc23)CC1 [Example 1, tert-butyl 4-(1H-indol-3-yl)-1-piperidinecarboxylate]
The melting point of the first is lower: 136 to 137 °C for the first, 159 to 160 °C for the second.
